These results are taken from EP0044212B1, “Herbicidal o-alkylsulfonyloxy- and o-alkylsulfonylamino-benzenesulfonamides” (E.I. DU PONT DE NEMOURS AND COMPANY, priority 1980, dated 1982).

One test has as its system Black Nightshade. The test is described as follows: Test D pre-/post-emergence weed control in cereals. In kind it is in vivo, Solanum nigrum. The following applies: 0.015 kg/ha, 20 days. The source says: Two ten-inch in diameter plastic pans lined with polyethylene liners were filled with prepared Fallsington slit loam soil. One pan was planted with seeds of wheat (Triticum aestivum), barley (Hordeum vulgarel, wild oats (Avena fatua), downy brome (Bromus tectorum), cheatgrass (Bromus secalinus), blackgrass (Alopecurus myosuroides), annual bluegrass (Poa annual, green foxtail (Setaria viridis), quack grass (Agropyron repens), Italian ryegrass (Lolium multiflorum) and ripgut brome (Bromus rigidus). The other pan was planted with seeds of Russian thistle (Salsola kali), tansy mustard (Descuraina pinnata), smartweed (Polygonum pensylvanicum), tumble mustard (Sisymbrium altissium) kochia (Kochia scoparia), shepherd's purse (Capsella bursa-pastoris), Matricaria inodora, black nightshade (Solanum nigrum), yellow rocket (Barbarea vulgaris), wild mustard (Brassica kaber) and wild buckwheat (Polygonum convolvulus). The above two pans were treated pre-emergence. At the same time two pans in which the above plant species were growing were treated post-emergence. […]
The compounds applied were diluted with a non-phytotoxic solvent and sprayed over-the-top of the pans. […] The recorded data, presented in Table D, indicate that certain compounds from within the scope of the invention have utility for pre- and/or post-emergence weed control in cereal crops such as wheat and barley.

Another test has as its system Arrowhead. As to the kind of experiment: Test E application to paddy water after transplanting of rice. The class given is in vivo, Sagittaria spp. The source says:
Test samples were formulated and applied directly to the paddy water three days after transplanting of rice. The test was maintained in a greenhouse, and plant response ratings were taken at the stated intervals after application.

SMILES strings stand for the structures.

On to `CCCS(=O)(=O)Oc1ccccc1S(=O)(=O)NC(=O)Nc1nc(OC)cc(OC)n1` [Compound 36, N-[(4,6-dimethoxypropimidin-2-yl)aminocarbonyl]-2-hydroxybenzenesulfonamide, 1-propanesulfonate], for which the figures for the “Black Nightshade response rating” value with Black Nightshade (Post-Emergence) and in the test on Black Nightshade (Pre-Emergence) were 2G and 4G, respectively. Besides, the “Arrowhead*** 8 Weeks” value with Arrowhead (25 g/ha in paddy water) and in the test on Arrowhead (100 g/ha in paddy water) was 0 each time.
